# Toxic doses and inconclusive results are not listed.
# System: L1210 leukemia ip in BDF1 mice, survival T/C
# Test: NCI In Vivo Anticancer Drug Screen. Data for tumor model L1210 Leukemia (intraperitoneal) in B6D2F1 (BDF1) mice
# Settings: higher = longer survival
# Outline: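 Read-out is survival time, reported as the treated-group measurement over the vehicle-control measurement.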
# [1] = endpoint: mean survival time, dose: 100.0 mg/kg/injection, schedule: Q01DX009 (ip), vehicle: Klucel (hydroxypropylcellulose) (HPC)
# [2] = endpoint: mean survival time, dose: 200.0 mg/kg/injection, schedule: Q01DX009 (ip), vehicle: Klucel (hydroxypropylcellulose) (HPC)
# [3] = endpoint: mean survival time, dose: 400.0 mg/kg/injection, schedule: Q01DX009 (ip), vehicle: Klucel (hydroxypropylcellulose) (HPC)
# [4] = endpoint: mean survival time, dose: 100.0 mg/kg/injection, schedule: Q04DX003 (ip), vehicle: saline with Tween-80
# [5] = endpoint: mean survival time, dose: 200.0 mg/kg/injection, schedule: Q04DX003 (ip), vehicle: saline with Tween-80
# [6] = endpoint: mean survival time, dose: 400.0 mg/kg/injection, schedule: Q04DX003 (ip), vehicle: saline with Tween-80
# [7] = endpoint: mean survival time, dose: 100.0 mg/kg/injection, schedule: Q01DX009 (ip), vehicle: saline with Tween-80
# [8] = endpoint: mean survival time, dose: 200.0 mg/kg/injection, schedule: Q01DX009 (ip), vehicle: saline with Tween-80
# [9] = endpoint: mean survival time, dose: 400.0 mg/kg/injection, schedule: Q01DX009 (ip), vehicle: saline with Tween-80
# [10] = endpoint: mean survival time, dose: 100.0 mg/kg/injection, schedule: Q04DX002 (ip), vehicle: saline
# [11] = endpoint: mean survival time, dose: 50.0 mg/kg/injection, schedule: Q01DX009 (ip), vehicle: saline
# [12] = endpoint: mean survival time, dose: 50.0 mg/kg/injection, schedule: Q04DX003 (ip), vehicle: saline
# [13] = endpoint: mean survival time, dose: 100.0 mg/kg/injection, schedule: Q01DX009 (ip), vehicle: saline
# [14] = endpoint: mean survival time, dose: 100.0 mg/kg/injection, schedule: Q04DX003 (ip), vehicle: saline
# [15] = endpoint: mean survival time, dose: 200.0 mg/kg/injection, schedule: Q01DX009 (ip), vehicle: saline
# [16] = endpoint: mean survival time, dose: 200.0 mg/kg/injection, schedule: Q04DX003 (ip), vehicle: saline
# [17] = endpoint: mean survival time, dose: 400.0 mg/kg/injection, schedule: Q04DX003 (ip), vehicle: saline
# [18] = endpoint: mean survival time, dose: 100.0 mg/kg/injection, schedule: Q04DX003 (ip), vehicle: Klucel (hydroxypropylcellulose) (HPC)
# [19] = endpoint: mean survival time, dose: 200.0 mg/kg/injection, schedule: Q04DX003 (ip), vehicle: Klucel (hydroxypropylcellulose) (HPC)
# [20] = endpoint: mean survival time, dose: 400.0 mg/kg/injection, schedule: Q04DX003 (ip), vehicle: Klucel (hydroxypropylcellulose) (HPC)
# [21] = endpoint: mean survival time, dose: 16.0 mg/kg/injection, schedule: Q04DX003 (ip), vehicle: saline
# [22] = endpoint: mean survival time, dose: 50.0 mg/kg/injection, schedule: Q04DX003 (ip), vehicle: Klucel (hydroxypropylcellulose) (HPC)
compound,measurement,setting,value
Cc1ccc(NC(=O)Oc2ccc(-c3ccccc3)cc2Br)c(Br)c1,T/C,[1],93 % of control
same,T/C,[2],94 % of control
same,T/C,[3],91 % of control
O=C(COc1cc(Cl)c(Cl)cc1Cl)Nc1cccc(O)c1,T/C,[1],101 % of control
same,T/C,[2],96 % of control
same,T/C,[3],115 % of control
COc1ccccc1NCS(=O)(=O)O,T/C,[4],98 % of control
same,T/C,[5],102 % of control
same,T/C,[6],100 % of control
Cc1ccc(NS(=O)(=O)c2ccc3ccccc3c2)c(C)c1,T/C,[7],106 % of control
same,T/C,[4],89 % of control
same,T/C,[8],112 % of control
same,T/C,[5],102 % of control
same,T/C,[9],107 % of control
same,T/C,[6],89 % of control
CCCCNC(C)(C)C(SSSC(c1cccs1)C(C)(C)NCCCC)c1cccs1 (configuration not stated),T/C,"endpoint: mean survival time, dose: 100.0 mg/kg/injection, schedule: Q04DX003 (ip), vehicle: saline sonified",97 % of control
same,T/C,"endpoint: mean survival time, dose: 200.0 mg/kg/injection, schedule: Q04DX003 (ip), vehicle: saline sonified",107 % of control
same,T/C,"endpoint: mean survival time, dose: 400.0 mg/kg/injection, schedule: Q04DX003 (ip), vehicle: saline sonified",100 % of control
CCSC(SCC)C(N)C(O)C(O)C(O)CO (configuration not stated),T/C,"endpoint: mean survival time, dose: 50.0 mg/kg/injection, schedule: Q04DX002 (ip), vehicle: saline",103 % of control
same,T/C,[10],103 % of control
same,T/C,"endpoint: mean survival time, dose: 200.0 mg/kg/injection, schedule: Q04DX002 (ip), vehicle: saline",109 % of control
O=P(CCCl)(CCCl)CCCl,T/C,[11],87 % of control
same,T/C,[12],98 % of control
same,T/C,[13],87 % of control
same,T/C,[14],106 % of control
same,T/C,[15],90 % of control
same,T/C,[16],101 % of control
same,T/C,[17],101 % of control
O=C(C[n+]1ccc2ccccc2c1)c1cccc([N+](=O)[O-])c1,T/C,[4],105 % of control
same,T/C,[5],97 % of control
same,T/C,[6],100 % of control
CCON=C1C(C)(C)C(C)(C)C(C)(C)C1(C)C,T/C,[1],98 % of control
same,T/C,[2],95 % of control
same,T/C,[3],96 % of control
NC(=O)c1cn[nH]c1N1CC[N+](CCCl)=N1,T/C,[11],93 % of control
same,T/C,[13],103 % of control
same,T/C,[14],103 % of control
same,T/C,[15],108 % of control
same,T/C,[16],97 % of control
O=C(C1CC2CCC1C2)C1CC2CCC1C2 (configuration not stated),T/C,[7],98 % of control
same,T/C,[18],97 % of control
same,T/C,[8],95 % of control
same,T/C,[19],100 % of control
same,T/C,[9],96 % of control
same,T/C,[20],100 % of control
CC[C@H]1CN2CCc3cc(OC)c(OC)cc3[C@@H]2C[C@@H]1C[C@H]1NCCc2c1[nH]c1ccc(OC)cc21,T/C,"endpoint: mean survival time, dose: 0.5 mg/kg/injection, schedule: Q01DX009 (ip), vehicle: saline",103 % of control
same,T/C,"endpoint: mean survival time, dose: 1.0 mg/kg/injection, schedule: Q01DX009 (ip), vehicle: saline",105 % of control
same,T/C,"endpoint: mean survival time, dose: 2.0 mg/kg/injection, schedule: Q01DX005 (ip), vehicle: saline",113 % of control
same,T/C,"endpoint: mean survival time, dose: 2.0 mg/kg/injection, schedule: Q01DX009 (ip), vehicle: saline",107 % of control
same,T/C,"endpoint: mean survival time, dose: 2.0 mg/kg/injection, schedule: Q04DX003 (ip), vehicle: saline",115 % of control
same,T/C,"endpoint: mean survival time, dose: 4.0 mg/kg/injection, schedule: Q01DX005 (ip), vehicle: saline",117 % of control
same,T/C,"endpoint: mean survival time, dose: 4.0 mg/kg/injection, schedule: Q01DX009 (ip), vehicle: saline",114 % of control
same,T/C,"endpoint: mean survival time, dose: 4.0 mg/kg/injection, schedule: Q04DX003 (ip), vehicle: saline",123 % of control
same,T/C,"endpoint: mean survival time, dose: 8.0 mg/kg/injection, schedule: Q04DX003 (ip), vehicle: saline",109 % of control
same,T/C,"endpoint: mean survival time, dose: 16.0 mg/kg/injection, schedule: Q01DX009 (ip), vehicle: saline",117 % of control
same,T/C,[21],124 % of control
same,T/C,"endpoint: mean survival time, dose: 32.0 mg/kg/injection, schedule: Q04DX003 (ip), vehicle: saline",152 % of control
same,T/C,"endpoint: median survival time, dose: 4.0 mg/kg/injection, schedule: Q04DX003 (ip), vehicle: saline + alcohol",101 % of control
same,T/C,"endpoint: median survival time, dose: 8.0 mg/kg/injection, schedule: Q04DX003 (ip), vehicle: saline + alcohol",104 % of control
same,T/C,"endpoint: median survival time, dose: 16.0 mg/kg/injection, schedule: Q04DX003 (ip), vehicle: saline + alcohol",117 % of control
same,T/C,"endpoint: median survival time, dose: 64.0 mg/kg/injection, schedule: Q04DX003 (ip), vehicle: saline + alcohol",86 % of control
CNCCCNCC(Cc1ccccc1)c1ccccc1 (configuration not stated),T/C,[10],86 % of control
COc1ccc(/C=C2/COC/C(=C\c3ccc(OC)cc3)C2=O)cc1,T/C,[13],91 % of control
same,T/C,[15],91 % of control
same,T/C,"endpoint: mean survival time, dose: 400.0 mg/kg/injection, schedule: Q01DX009 (ip), vehicle: saline",91 % of control
O=C(c1ccccc1)c1ccc(O)c2ncccc12,T/C,"endpoint: mean survival time, dose: 100.0 mg/kg/injection, schedule: Q04DX002 (ip), vehicle: Klucel (hydroxypropylcellulose) (HPC)",102 % of control
same,T/C,"endpoint: mean survival time, dose: 200.0 mg/kg/injection, schedule: Q04DX002 (ip), vehicle: Klucel (hydroxypropylcellulose) (HPC)",102 % of control
same,T/C,"endpoint: mean survival time, dose: 400.0 mg/kg/injection, schedule: Q04DX002 (ip), vehicle: Klucel (hydroxypropylcellulose) (HPC)",98 % of control
O=C(O)c1nccc2c(O)cccc12,T/C,[14],93 % of control
same,T/C,[16],102 % of control
same,T/C,[17],101 % of control
CCS(=O)(=O)Nc1cccc(Nc2c3cccc(C)c3nc3c(C)cccc23)c1OC,T/C,"endpoint: mean survival time, dose: 5.5 mg/kg/injection, schedule: Q01DX009 (ip), vehicle: saline",122 % of control
same,T/C,"endpoint: mean survival time, dose: 11.0 mg/kg/injection, schedule: Q04DX003 (ip), vehicle: saline",113 % of control
same,T/C,"endpoint: mean survival time, dose: 12.5 mg/kg/injection, schedule: Q01DX009 (ip), vehicle: saline with Tween-80",155 % of control
same,T/C,"endpoint: mean survival time, dose: 12.5 mg/kg/injection, schedule: Q01DX009 (sc), vehicle: Klucel (hydroxypropylcellulose) (HPC)",112 % of control
same,T/C,[21],114 % of control
same,T/C,"endpoint: mean survival time, dose: 25.0 mg/kg/injection, schedule: Q01DX009 (ip), vehicle: saline with Tween-80",181 % of control
same,T/C,"endpoint: mean survival time, dose: 25.0 mg/kg/injection, schedule: Q01DX009 (sc), vehicle: Klucel (hydroxypropylcellulose) (HPC)",123 % of control
same,T/C,"endpoint: mean survival time, dose: 50.0 mg/kg/injection, schedule: Q01DX009 (ip), vehicle: saline with Tween-80",103 % of control
same,T/C,[12],157 % of control
same,T/C,[14],170 % of control
O=C(O)/C(=C\c1ccc(Cl)cc1)c1cccc2ccccc12,T/C,[22],92 % of control
same,T/C,[1],98 % of control
same,T/C,[2],100 % of control
same,T/C,[19],87 % of control
CN(Cc1cc(Br)cc(Br)c1O)C1CC2CCC1(C)C2(C)C (configuration not stated),T/C,[18],88 % of control
same,T/C,[19],95 % of control
same,T/C,[20],88 % of control
CC1(C)CCC2(CC1)CC(=O)OC2=O,T/C,[4],95 % of control
same,T/C,[5],97 % of control
same,T/C,[6],98 % of control
CC(O)C(Cl)(Cl)Cl (configuration not stated),T/C,"endpoint: mean survival time, dose: 75.0 mg/kg/injection, schedule: Q01DX001 (ip), vehicle: carboxymethylcellulose (CMC)",100 % of control
same,T/C,"endpoint: mean survival time, dose: 150.0 mg/kg/injection, schedule: Q01DX001 (ip), vehicle: carboxymethylcellulose (CMC)",98 % of control
same,T/C,"endpoint: mean survival time, dose: 300.0 mg/kg/injection, schedule: Q01DX001 (ip), vehicle: carboxymethylcellulose (CMC)",106 % of control
NC1(CSS(=O)(=O)O)CCN1 (configuration not stated),T/C,"endpoint: mean survival time, dose: 10.0 mg/kg/injection, schedule: Q04DX002 (ip), vehicle: saline",106 % of control
same,T/C,"endpoint: mean survival time, dose: 20.0 mg/kg/injection, schedule: Q04DX002 (ip), vehicle: saline",98 % of control
same,T/C,"endpoint: mean survival time, dose: 40.0 mg/kg/injection, schedule: Q04DX002 (ip), vehicle: saline",109 % of control
CCOC(=O)NC1=C(Cl)C(=O)C(NC(=O)OCC)=C(Cl)C1=O,T/C,[18],102 % of control
same,T/C,[19],92 % of control
COC(=O)C1C2CC3c4[nH]c5cc(OC)ccc5c4CCN3CC2CC(OC2CCCCO2)C1OC (configuration not stated),T/C,"endpoint: mean survival time, dose: 25.0 mg/kg/injection, schedule: Q04DX003 (ip), vehicle: Klucel (hydroxypropylcellulose) (HPC)",98 % of control
same,T/C,[22],100 % of control
same,T/C,[18],117 % of control
